Measurements from patent publication US20230053307A1, “METHOD FOR PREVENTING OR TREATING SKIN DISORDERS AND CONDITIONS” (BUDDHIST TZU CHI MEDICAL FOUNDATION, priority 2021, published 2023).

Assays:
[1] = system: primary human keratinocytes; assay: Western blotting of CKI-treated primary human keratinocytes; format: cell-based; conditions: 72 hours
Experimental: FIGS. 4A to 4G show the effect of CKI treatment on human primary keratinocytes and melanocytes. […] In FIG. 4B, the primary human keratinocytes were treated with indicated concentrations of CKI when the cell confluence was 90%. […] Statistical results from a total of 3 independent experiments were determined with unpaired t-test analysis and shown as mean±SD. “NS” indicates no significant difference and asterisks *** indicates a significant difference with P<0.001. In FIGS. 4D and 4E, the primary melanocytes were cultured in conditional medium that have cultured keratinocytes for 3 days and treated with or without CKI.
FIGS. 7A to 7C show the effects of additional casein kinase 1 inhibitors including A51, CKI7, D4476 and IC261 on the Kit pathway and melanogenesis-related protein expression levels of human keratinocytes.
(§1) Western blot For experiments involving tissues, the tissues were homogenized and lysed in 1x tissue protein extraction reagent (Thermo Fisher) containing protease inhibitor (Millipore) and kept on ice; for experiments involving cells, cell pellet was collected and lysed in 1x radioimmunoprecipitation assay (RIPA) lysis buffer containing protease inhibitor (Millipore) and kept on ice. The total protein concentration was determined using Protein Assay Dye Reagent Concentrate (Bio-Rad) following manufacturer's instruction with a microplate reader. Sample was diluted in SDS-PAGE Sample Buffer (Bio-Rad) and heated at 95° C. for 5 minutes. The protein sample was then resolved on SDS-PAGE gels (TGX FastCast acrylamide solutions, Bio-Rad) and transferred onto poly(vinylidene fluoride) (PVDF) membranes (Millipore). 5% BSA was used, and then the membranes were incubated with primary antibodies overnight at 4° C. The membranes were then washed by Tris-buffered saline with Tween 20 (TBST) and incubated with secondary antibodies for 1 hour at room temperature. The signal was detected using iBright FL1000 Imaging System from Thermo Fisher Scientific.
Cell culture Human keratinocyte and melanocyte were cultured from human foreskin. The keratinocyte was cultured with keratinocyte serum-free medium (SFM), or K-SFM, which is a complete serum-free medium and supplemented with human recombinant epidermal growth factor (rEGF) and bovine pituitary extract (BPE) (Gibco, 17005042) at the time of use. Melanocyte was cultured with Medium 254 containing human melanocyte growth supplement (HMGS) (Gibco, M254500). The culture was maintained at 37° C. and in 5% CO2. Keratinocyte Kit ligand secretion was detected by Human SCF ELISA Kit (Abcam, ab176109). All of the procedures followed manufacturer's instruction.
In skin, keratinocyte interacts with melanocyte through a system of paracrine growth factors and cell-cell adhesion junction for a stable skin homeostatic balance. In this embodiment, primary cultures of keratinocyte and melanocyte were prepared from human foreskin. The primary human keratinocytes were treated with indicated concentration of CKI for 3 days, and the conditional medium was collected and used to treat melanocytes for 3 days.
Additional casein kinase 1 inhibitors were used to examine their effects on KitL production with human keratinocyte cultures. […] A51 was a CKI gifted by Dr. Yinon Ben-Neriah, and […] (Sigma-Aldrich D1944) and IC261 (Sigma-Aldrich 400090) were commercially available and were dissolved in DMSO. CKI7 was another CKI commercially available (Sigma-Aldrich C0742) and was dissolved in ddH20. […] Expression of KitL was increased in CKI, CKI7, D4476 and IC261 after treatment for 72 hours, compared to DMSO or mock. Mock was a control in the experiment where the keratinocytes were neither treated with DMSO or any CKI. In FIG. 7B, it was further shown that D4476 treatment at concentrations of from 500 nM to 5,000 nM on human keratinocytes increases the expression of p53 and KitL […] in treated keratinocytes after 72 hours. […]

[2] = system: p53 and pigmentation-related proteins; assay: Western blotting of human skin explant epidermis; format: cell-based; conditions: 0.1 mg of D4476, human skin explant, vs control
Excerpt: (§2) The numbers of Melan-A+cells and Trip-1+cells and also the relative melanin intensity in the control or CKI treatment groups are quantified in the histograms. […] The asterisks *** indicated a significant difference with P<0.001.
In addition, the epidermis and dermis were separated by thermolysin. The total proteins of epidermis were extracted by T-PER Tissue Protein Extraction Reagent (78510, Thermo Fisher) for Western blotting analysis.
as §1

human foreskin explants = assay: Human skin explant: colour, Fontana-Masson staining, Melan-A and Trp-1 IHC; format: cell-based; conditions: D4476, human skin explant
Experimental: (§3) The specimen was cultured in the 12-well plate (N=5). After 24 hours of explant culture, the specimen was treated with 0.01 mg CKI, and another treatment of 0.01 mg CKI was given two days thereafter, as shown in the timeline. On the 5th day, the specimens were exposed under 1 J/cm^2 UVB light. Samples were harvested 6 hours later. […] Moreover, frozen embedding in OCT was also made for IHC analysis for Melan-A and Trp-1 labelling.
(§4) FIGS. 6A to 6E show the UV protection effect of topical treatment of another CKI, D4476, on human skin explants. […] FIGS. 6C and 6D show the Western blotting analysis results and the quantitated amount, respectively, of the expression levels of proteins in the c-Kit pathway and melanogenesis-related protein.
For topical use on human skin explant, a CKI solution containing 1 mg in 6 μL DMSO was diluted with 594 μL phosphate buffered saline (PBS) for further use. The final working concentration is 0.01 mg/6 μL.
Human skin explant The human foreskins were used for in vitro explant culture experiments. […]
Primary antibody was applied in 4° C. overnight, and then incubated with secondary antibody at room temperature for 30 minutes. The signal was detected by AEC+Substrate-Chromogen (K346111, Dako) or Dako REAL EnVDetectSys Perox/DAB+, Rb/M (K500711, Dako), counterstained with hematoxylin and mounted with either aqueous- or organic-based medium. […]

[3] = system: KitL/c-Kit pathway and melanocyte-related targets; assay: Western blotting of ear skin, MC1R mutant mice; format: in vivo, mouse; conditions: topical, total 0.24 mg over 2 weeks, ear skin at 3rd week
Experimental: FIGS. 2A to 2L show the effects of CK1α ablation in keratinocytes of MC1R mutant mice and the UV protection effect of topical CKI treatment on MC1R mutant mice. […] The skin samples were treated as illustrated in the scheme and harvested after 24 hours of 750 mJ/cm^2 UVB irradiation on day 21 and stained with anti-CPD antibody for examining the DNA damage.
FIGS. 5A and 5B show the effect of D4476 and IC261 treatments on MC1R mutant mice.
as §1

CPD = assay: UVB-induced CPD in human skin explants; format: cell-based; conditions: 0.08 mg of D4476; 6 hours after 1,000 mJ/cm^2 UVB
Experimental: as §3, §2, §4
In the immunohistochemical analysis shown in FIG. 3C, both Melan-A and Trp-1, the markers for melanocyte, were found increased in the staining. […] In addition, human skin explants after topical CKI treatment were exposed to 1 J/cm^2 UVB irradiation, and collected for CPD analysis 6 hours later. […]

[4] = compared to DMSO or mock (FIG. 7A)
[5] = 500 nM to 5,000 nM, dose-independently

Structure (SMILES) | expression of KitL [1, 4] | KitL (Western blotting) [2] | c-Kit (Western blotting) [2] | p53 (Western blotting) [2] | tyrosinase (Western blotting) [2] | β-catenin (Western blotting) [2] | melanin intensity in epidermis (Fontana-Masson staining) (human foreskin explants) | expression of Kit-L [3] | expression of c-Kit [3] | expression of tyrosinase [3] | CPD staining (CPD) | expression of KitL [1, 5] | expression of p53 [1, 5]
NCCNS(=O)(=O)c1ccc(Cl)c2ccncc12 [CKI7] | increased | – | – | – | – | – | – | – | – | – | – | – | –
NC(=O)c1ccc(-c2nc(-c3ccc4c(c3)OCCO4)c(-c3ccccn3)[nH]2)cc1 [D4476] | increased | increased | increased | stabilization | increased | stabilization | increased | increased | increased | increased | reduced | increases | increases
COc1cc(OC)c(C=C2C(O)=Nc3ccccc32)c(OC)c1 [IC261] | increased | – | – | – | – | – | – | increased | increased | increased | – | increases | increases
